pIC50: −log10 of the molar value. Marks after values point to notes of the source that are not given here.
Legend:
xylene-induced ear edema [1] = assay: Xylene-induced ear edema test, initial screening (i.p.); assay type: in vivo; conditions: mice; for inhibition in vivo at 100 mg/kg: Mus musculus, ip, 0.5 h, n = 6, read-out: Inhibition Rate; for Edema Mean ± SD: 100 mg/kg, n = 6
Experimental: In vivo inhibition test of xylene induced ear edema in mice was performed to evaluate its anti-inflammatory activity.
In the initial screening, mice (male) were randomly divided into experimental group, positive control drug ibuprofen and Mesalazine group, and blank group. All target compounds were dissolved in dimethyl sulfoxide, and corresponding drugs were intraperitoneally injected into experimental group, positive control group and blank group, respectively. Mice were treated with 100 mg/kg, 0.1 mL/20 g body weight, and control mice received only DMSO (0.1 mL/20 g body weight). After 30 min, 20 μL of xy-lene was evenly applied on both sides of the right ear of the mice. After 30 min of xy-lene was applied, the mice were sacrificed by cutting off their necks. Then the left and right ears of the mice were drilled with a hole punch with a diameter of 7 mm, respec-tively, to obtain two round ear pieces. The degree of swelling (right ear mass–left ear mass) was calculated for each sample, and the swelling inhibition rate of each drug was calculated using the following formula. The inhibition rate of swelling degree (%) = (mean ear swelling degree of mice in blank group […] mean ear swelling degree of mice in target compound group)/mean ear swelling degree of mice in blank group × 100%. The data were processed by GraphPadPrism 5 and expressed as mean data ± SEM. One-way ANOVA method was used for statistical analysis of relevant data. A value of p < 0.05 in the chart indicates significant and statistically significant data dif-ference.

xylene-induced ear edema [2] = assay: Xylene-induced ear edema test, deep screening (oral); assay type: in vivo; conditions: mice
Experimental: In the deep screening, mice were divided into target compound group, positive control group (ibuprofen), and blank group (8 male mice in each group). Target com-pound and ibuprofen were dissolved in sodium carboxymethyl cellulose aqueous solu-tion (sodium carboxymethyl cellulose to water, mass ratio 1:1000); the blank group was sodium carboxymethyl cellulose aqueous solution (sodium carboxymethyl cellu-lose to water, mass ratio 1:1000). The anti-inflammatory activities of each compound in the target compound group, positive control group, and blank group were measured at 1, 2, 3, 4, 6, 9, 12 and 24 h after taking the drug. The experimental operation and calculation method are the same as the initial screening part.

[3] = test system: NF-κB transcriptional activity; assay: NF-κB luciferase reporter assay in HeLa cells; assay type: cell-based; conditions: Homo sapiens, NF-κB luciferase reporter, 24 h treatment, hypoxic conditions, mean, n = 3
Experimental: A NF-κB-Luc plasmid for NF-κB luciferase reporter assay was obtained from Strategene (La Jolla, CA, USA). Transfections were performed as previously described. NF-κB-dependent luciferase activity was measured using the Dual-luciferase reporter assay system. Briefly, HeLa cells (1 × 10^5 cells/well) were seeded in a 96-well plate for 24 h. The cells were then transfected with plasmids for each well and then incubated for a transfection period of 24 h. […] Luciferase activity was determined in MicroLumat plus luminometer (EG&G Berthold, Bad Wildbad, Germany) by injecting 100 µL of assay buffer containing luciferin and measuring light emission for 10 s. Co-transfection with pRL-CMV (Promega, Madison, WI, USA), which expresses Renilla luciferase, was performed to enable normalization of data for transfection efficiency.

[4] = MTT cytotoxicity / cell viability assay; assay type: cell-based; conditions: human; MTT assay, HeLa cells, 24 h treatment, normoxic conditions; mean, n = 3
Experimental: (§1) HeLa cells were inoculated and cultured in 96-well plates. After the cells adhered to the wall, the prepared target compounds with different concentrations were added to all plates for 24 h and then cultured in 5 mg/mL MTT solution for 4 h. The culture solution in the holes was sucked out, and DMSO reagent was added. After the crystallization was fully dissolved, the absorbance at 570 nm was measured by Multiskan GO.

HeLa cells = assay: MTT cytotoxicity / cell viability assay; assay type: cell-based; conditions: MTT assay, 24 h treatment, normoxic conditions, mean, n = 3
Experimental: as §1

melting point [°C] | pIC50 [3] | Compound | inhibition in vivo at 100 mg/kg (xylene-induced ear edema [1]) [%] | Edema Mean ± SD (xylene-induced ear edema [1]) [mg] | Inhibition (xylene-induced ear edema [2]; 100 mg/kg, time 1 h) [% ***] | Inhibition (xylene-induced ear edema [2]; 100 mg/kg, time 2 h) [% ***] | Inhibition (xylene-induced ear edema [2]; 100 mg/kg, time 3 h) [% ***] | Inhibition (xylene-induced ear edema [2]; 100 mg/kg, time 4 h) [% ***] | Inhibition (xylene-induced ear edema [2]; 100 mg/kg, time 9 h) [% ***] | Inhibition (xylene-induced ear edema [2]; 100 mg/kg, time 12 h) [% ***] | Inhibition (xylene-induced ear edema [2]; 100 mg/kg, time 24 h) [% ***] | Inhibition (xylene-induced ear edema [2]; dose series, 25 mg/kg, 6 h) [% **] | Inhibition (xylene-induced ear edema [2]; dose series, 50 mg/kg, 6 h) [% ***] | IC50 at 24 h [4] [µM] | IC50 Cytotoxicity (HeLa cells)
132 to 134 | 4.73 | COC(=O)c1c2c(c3ccccc3c1OCC(=O)Nc1ccc(F)cc1)OC(C)(C)C=C2 [Compound 4f, Methyl 6-(2-((4-fluorophenyl)amino)-2-oxoethoxy)-2,2-dimethyl-2H-benzo [h] chromene-5-carboxylate] | 83.1 | 1.1167 ± 0.2544 | 27.53 | 37.12 | 46.46 | 58.08 | 43.94 | 35.35 | 26.01 | 46.46 | 53.08 | > 100 | no significant cell toxicity
120 to 122 | 4.26 | COC(=O)c1c2c(c3ccccc3c1OCC(=O)Nc1ccc(C)cc1)OC(C)(C)C=C2 [Compound 4e, Methyl 2,2-dimethyl-6-(2-oxo-2-(p-tolylamino)ethoxy)-2H-benzo [h] chromene-5-carboxylate] | 41.4 | 3.8667 ± 1.2023 | – | – | – | – | – | – | – | – | – | > 100 | no significant cell toxicity
122 to 124 | < 4.00 | COC(=O)c1c2c(c3ccccc3c1OCC(=O)Nc1cccc(C)c1)OC(C)(C)C=C2 [Compound 4h, Methyl 2,2-dimethyl-6-(2-oxo-2-(m-tolylamino)ethoxy)-2H-benzo [h] chromene-5-carboxylate] | 62.4 | 2.4833 ± 1.5464 | – | – | – | – | – | – | – | – | – | > 100 | –
126 to 128 | 4.05 | COC(=O)c1c2c(c3ccccc3c1OCC(=O)Nc1ccc(OC)cc1)OC(C)(C)C=C2 [Compound 4d, Methyl 6-(2-((4-methoxyphenyl)amino)-2-oxoethoxy)-2,2-dimethyl-2H-benzo [h] chromene-5-carboxylate] | 61.9 | 2.5167 ± 0.6890 | – | – | – | – | – | – | – | – | – | > 100 | no significant cell toxicity
126 to 128 | < 4.00 | COC(=O)c1c2c(c3ccccc3c1OCC(=O)Nc1ccncc1)OC(C)(C)C=C2 [Compound 6e, Methyl 2,2-dimethyl-6-(2-oxo-2-(pyridin-4-ylamino)ethoxy)-2H-benzo [h] chromene-5-carboxylate] | 65.9 | 2.2500 ± 0.3403 | – | – | – | – | – | – | – | – | – | > 100 | –
130 to 132 | 4.64 | COC(=O)c1c2c(c3ccccc3c1OCC(=O)NCc1ccc(Cl)cc1)OC(C)(C)C=C2 [Compound 6c, Methyl 6-(2-((4-chlorobenzyl)amino)-2-oxoethoxy)-2,2-dimethyl-2H-benzo [h] chromene-5-carboxylate] | 73.2 | 1.7667 ± 0.3037 | – | – | – | – | – | – | – | – | – | > 100 | –
128 to 130 | < 4.00 | COC(=O)c1c2c(c3ccccc3c1OCCNc1ccc(F)cc1)OC(C)(C)C=C2 [Compound 8c, Methyl6-(2-((4-fluorophenyl)amino)ethoxy)-2,2-dimethyl-2H-benzo [h] chromene-5-carboxylate] | 63.9 | 2.3833 ± 0.7104 | – | – | – | – | – | – | – | – | – | > 100 | –
127 to 129 | < 4.00 | COC(=O)c1c2c(c3ccccc3c1OCC(=O)NC(c1ccccc1)c1ccccc1)OC(C)(C)C=C2 [Compound 6g, Methyl 6-(2-(benzhydrylamino)-2-oxoethoxy)-2,2-Dimethyl-2H-benzo [h] chromene-5-carboxylate] | 58.6 | 2.7333 ± 0.4819 | – | – | – | – | – | – | – | – | – | > 100 | –
115 to 117 | 4.64 | COC(=O)c1c2c(c3ccccc3c1OCC(=O)Nc1ccc(CC#N)cc1)OC(C)(C)C=C2 [Compound 4i, Methyl 6-(2-((4-(cyanomethyl)phenyl)amino)-2-oxoethoxy)-2,2-dimethyl-2H-benzo [h] chromene-5-carboxylate] | 59.1 | 2.7000 ± 0.4619 | – | – | – | – | – | – | – | – | – | > 100 | no significant cell toxicity
135 to 137 | < 4.00 | COC(=O)c1c2c(c3ccccc3c1OCCNc1ccccc1)OC(C)(C)C=C2 [Compound 8b, Methyl 2,2-dimethyl-6-(2-(phenylamino)ethoxy)-2H-benzo[h]chromene-5-carboxylate] | 76.5 | 1.5500 ± 0.3594 | – | – | – | – | – | – | – | – | – | > 100 | –
118 to 120 | < 4.00 | COC(=O)c1c2c(c3ccccc3c1OCC(=O)Nc1ccccc1)OC(C)(C)C=C2 [Compound 4a, Methyl 2,2-dimethyl-6-(2-oxo-2-(phenylamino)ethoxy)-2H-benzo [h] chromene-5-carboxyate] | 38.6 | 4.0500 ± 0.6188 | – | – | – | – | – | – | – | – | – | > 100 | –
110 to 112 | < 4.00 | COC(=O)c1c2c(c3ccccc3c1OCCBr)OC(C)(C)C=C2 [Compound 8a, Methyl 6-(2-bromoethoxy)-2,2-dimethyl-2H-benzo [h] chromene-5-carboxylate] | 57.3 | 2.8167 ± 0.9370 | – | – | – | – | – | – | – | – | – | > 100 | –
113 to 115 | 4.73 | COC(=O)c1c2c(c3ccccc3c1OCC(=O)Nc1cccc3cccnc13)OC(C)(C)C=C2 [Compound 6j, Methyl 2,2-dimethyl-6-(2-oxo-2-(quinolin-8-ylamino)ethoxy)-2H-benzo [h] chromene-5-carboxylate] | 75.2 | 1.6333 ± 0.4384 | – | – | – | – | – | – | – | – | – | > 100 | –
121 to 123 | 5.31 | COC(=O)c1c2c(c3ccccc3c1OCC(=O)Nc1cnccn1)OC(C)(C)C=C2 [Compound 6h, Methyl 2,2-dimethyl-6-(2-oxo-2-(pyrazin-2-ylamino)ethoxy)-2H-benzo [h] chromene-5-carboxylate] | 72.7 | 1.8000 ± 0.6880 | – | – | – | – | – | – | – | – | – | > 100 | –
119 to 121 | < 4.00 | COC(=O)c1c2c(c3ccccc3c1OCC(=O)Nc1ccc(C)nc1)OC(C)(C)C=C2 [Compound 6i, Methyl 2,2-dimethyl-6-(2-((6-methylpyridin-3-yl)amino)-2-oxoethoxy)-2H-benzo [h] chromene-5-carboxylate] | 42.9 | 3.7667 ± 1.1571 | – | – | – | – | – | – | – | – | – | > 100 | –

— PMC9695821, “Synthesis and Evaluation of NF-κB Inhibitory Activity of Mollugin Derivatives” (Molecules, 2022)
